The values that follow come from article PMC7179685, “Iminosugars With Endoplasmic Reticulum α-Glucosidase Inhibitor Activity Inhibit ZIKV Replication and Reverse Cytopathogenicity in vitro” (Frontiers in Microbiology, 2020).

In one series the test system is dengue virus (DENV). Set-up: method as in Rathore et al., 2011. As to conditions: BHK-21 cells; MOI 0.3; ref Rathore et al., 2011; cited from earlier work.
The subject of the next series is CHME3 cells. As to the kind of experiment: Cytotoxicity, MTS cell viability assay in CHME3 cells. The format is cell-based, Human. As to conditions: 72 h post treatment. As to the method:
(§1) A cell viability assay was used to evaluate both the cytotoxicity and antiviral abilities of the iminosugars with appropriate controls as previously described ([Fletcher et al., 2000]) using the CellTiter 96® AQueous One Solution Cell Proliferation Assay (MTS, Promega, Madison, WI, United States) following the manufacturer’s instructions. At 60–70% confluence, Vero cells and CHME3 cells were pretreated with iminosugars for 2 h and then infected with ZIKV according to the plate layout shown in Supplementary Figure S1. Four biological replicates were used to assess cytotoxicity, and six replicates were used to assess the antiviral ability of each iminosugar with concentrations ranging from 0.01 to 1000 μM or vehicle (sterile nuclease-free water). Cells treated with iminosugars or vehicle control were infected with ZIKV strain PRVABC59, IBH30656 or MEX 2-81 at a multiplicity of infection (MOI) of 1 in infection medium consisting of DMEM supplemented with 5% FBS and 1% antibiotic/antimycotic solution. The CHME3 infection medium was additionally supplemented with 0.1% non-essential amino acids (NEAA). At 72 h post-infection (hpi), MTS solution was added to the wells, and after 2 h, the optical density was measured at 490 nm using a microplate reader (ELx800; BioTek, Winooski, VT, United States). Previous studies have shown that ER α-glucosidase inhibitor, Celgosivir prevents DENV secretion in primary human macrophages with an EC50 of 5 μM and has CC50 greater than 1000 μM in MBDK cells ([Whitby et al., 2004]; [Sung et al., 2016]).

Series [1] deals with activated caspases 3 and 7. As to the kind of experiment: Measurement of apoptosis, Caspase-Glo 3/7 assay in ZIKV-infected CHME3 cells. The format is cell-based, Human. To be noted: PRVABC59, MOI 1, 0.01 to 1000 μM, 48 and 72 hpi. As to the method:
Apoptotic cell death was evaluated by measuring the levels of active caspase 3 and 7 in cells using the Caspase-Glo® 3/7 Assay (Promega) following the manufacturer’s instructions. CHME3 cells in 96-well white-walled cell culture plates (Greiner Bio-One, Kremsmünster, Austria) were pre-treated with celgosivir for 2 h and then infected with PRVABC59 at MOI 1 in the presence of celgosivir at concentrations ranging from 0.01 to 1000 μM or vehicle. Controls for media color, cells, and virus were included. At 48 and 72 hpi, Caspase-Glo® Reagent was added, and after 30 min the luminescence of each sample was read five times using a Spark multimode microplate reader (TECAN, Männedorf, Switzerland) at an interval of 2 min for 15 s. The average of the five readings was used as the measurement for each biological replicate.

A further series has as its system MBDK cells. Set-up: method as in Whitby et al., 2004; Sung et al., 2016. To be noted: ref Whitby et al., 2004, Sung et al., 2016; cited from earlier work.
The next series concerns DENV. Details: method as in Whitby et al., 2004; Sung et al., 2016. To be noted: primary human macrophages; ref Whitby et al., 2004; Sung et al., 2016; read-out: EC50, prevention of DENV secretion; cited from earlier work.
In series [2] the test system is MDA5, RIG-I, MX1, IRF7, IFNβ, ISG15. As to the kind of experiment: Antiviral gene expression by qRT-PCR in CHME3 cells. The series is classed as cell-based, Human. As to conditions: 1 μM. As for the experimental part: CHME3 cells grown in 6-well plates and at 70% confluency were infected with PRVABC59 at MOI 1. After pre-incubation with the virus for 2 h, medium from cells was removed, cells were washed with PBS, and fresh infection medium containing 1 μM celgosivir was added. Negative control wells were added with infection medium without celgosivir. Three wells were used for each treatment. At 24, 48, and 72 h, total RNA was extracted from cells using the RNeasy Plus Minikit (Qiagen, Hilden, Germany) according to the manufacturer’s protocol. Complementary DNA was synthesized from 1 μg of total RNA using 4 μl of qScript cDNA SuperMix (5x) (QuantaBio, Beverly, MA, United States). qRT-PCR was performed on a 7500 Fast Real-Time PCR System (Applied Biosystems) using PowerSybr Green PCR MasterMix (Applied Biosystems) according to the manufacturer’s instructions. Expression of retinoic acid-inducible gene 1 (RIGI), melanoma differentiation-associated protein 5 (MDA5), interferon regulatory factor 7 (IRF7), interferon β (IFNβ), interferon-induced GTP-binding protein (MX1) and interferon-stimulated gene 15 (ISG15) were quantified, and hypoxanthine phosphoribosyltransferase 1 (HPRT1) was used as a house-keeping gene for data normalization. All primers used were previously published and were supplied by IDT ([Megiorni et al., 2005]; [Kim et al., 2008]; [Nasirudeen et al., 2011]; [Muramatsu et al., 2014]; [Seng et al., 2014]; [Liu et al., 2015]; [Livingstone et al., 2015]).

A further series concerns Vero cells. The series is described as follows: Cytotoxicity, MTS cell viability assay in Vero cells. The format is cell-based, African green monkey. As to conditions: 72 h post treatment. As to the method:
as §1

pEC50: −log10 of the molar value.

In the case of `CCCC(=O)O[C@H]1CN2CC[C@H](O)[C@@H]2[C@@H](O)[C@@H]1O` [celgosivir, 6-O-butanoyl castanospermine], the “effectiveness against DENV relative to castanospermine” value with dengue virus (DENV) is reported as 100 times. For the same compound, the “metabolic activity (cytotoxicity, MTS)” value in the series on CHME3 cells (1000 μM) and in the series on Vero cells (1000 μM) was “decrease in metabolic activity” in each case. Besides, the “metabolic activity compared to vehicle control (cytotoxicity, MTS)” value in the series with CHME3 cells (0.01 to 100 μM) and in the series with Vero cells (0.01 to 100 μM) was “No reduction in metabolic activity” in each case. Besides, the “levels of activated caspases 3 and 7 in comparison to untreated infected cells” value in series [1] was “did not significantly reduce”. In the series with MBDK cells, the CC50 was > 1000 µM. For the same compound, in the series on DENV, the pEC50 was 5.30. Further, in series [2] (PRVABC59 ZIKV-infected CHME3 cells, treated vs not treated, 48 hpi, p = 0.033), the “decrease of IFNβ expression levels” value is 27%. In addition, the “expression levels of MDA5, RIG-I, MX1, IRF7, and ISG15, treated vs vehicle-treated” value in series [2] (PRVABC59 ZIKV-infected CHME3 cells, any timepoint (24, 48, 72 h)) was “not significantly different”. Besides, in series [2] (mock-infected CHME3 cells, treated vs untreated, 48 hpi, statistically significant), the “decrease of IFNβ gene expression” value was determined as 22%. Moreover, the “level of IFNβ expression, treated vs untreated” value in series [2] (mock-infected CHME3 cells, 72 hpi) is on record as “similar”.
